Reference: US12319652B2, “Salts and solid forms of (R)-1-(5-methoxy-1H-indol-1-yl)-N,N-dimethylpropan-2-amine” (priority 2021, dated 2025)

Assays:
[1] = Binary solvent evaporation crystallization of Compound 1 HCl
Description: A binary solvent evaporation crystallization panel was performed. Separate portions of Compound 1 HCl 50 mg) were dissolved in a primary solvent of water (500 μl per sample) and a secondary solvent—one of either acetone (250 μl, A), acetonitrile (250 μl, B), THF (250 μl, C) and methanol (250 μl, D).
Each vial was capped with aluminium foil, pieced and allowed to stand undisturbed until the evaporation was completed. Experimental details are included in Table 109.

[2] = Qualitative solubility screen of Compound 1 HCl; format: physicochemical
Description: The qualitative solubility screen was carried out to determine the range of solvents incorporated into future suspension equilibration panels.
Products that crystallized were centrifuged and analyzed as wet pellet by XRPD, dried under reduced pressure and re-analyzed by XRPD, with selected samples further analyzed by TGA and ^1H NMR spectroscopy.

[3] = Qualitative solubility screen of Compound 1 Fumarate in solvents; format: physicochemical
Description: The salt compound also dissolved in refluxing methylisobutyketone (MIBK) at 15 vol concentration. Consistent with Example 1, the solutions formed were cooled and the IPA, 2-MeTHF and MIBK solutions yielded solid material on cooling. The solid product obtained from MIBK was analyzed by XRPD, TG and ^1H NMR—the XRPD diffractogram is provided as FIG. 1 and the ^1H NMR spectrum is provided as FIG. 2.
Compound 1·Fumarate was soluble in many of the common solvents assessed (predominantly Classes 2 and 3 solvents) at 5.0 vol (200 mg/ml), 10.0 vol, 15.0 vol and 20.0 vol (refer to Table). Solids were isolated on cooling from isopropanol (IPA, 5.0 vol), 2-MeTHF (5.0 vol) and methylisobutylketone (MIBK, 15.0 vol). The products from IPA and 2-MeTHF were gums, and not pursued further.
Compound 1 Fumarate (batch 1, 25 mg, 1 wt) was weighed out in 20 separate vials to qualitatively examine the solubility in an array of diverse solvents. […] If insoluble at 5 vol, the solvent quantity was increased to 10 vol, 15 vol and 20 vol of the respective solvent. The suspensions that occurred upon cooling down were centrifuged and the solvent wet pellets were analysed by XRPD. The insoluble suspensions were additionally worked up for XRPD analysis. The resultant powder patterns were subsequently cross-referenced against the input supplied material.

[4] = Ethanol/Water (15% v/v, 0.5 aw), 5 vol

COc1ccc2c(ccn2C[C@@H](C)N(C)C)c1.Cl [Compound 1 HCl]
Observations (t = 14 days @ ambient) ([1]; A: Water 10.0 vol + Acetone 250 μL): Solid | Observations (t = 14 days @ ambient) ([1]; B: Water 10.0 vol + Acetonitrile 250 μL): Solid | Observations (t = 14 days @ ambient) ([1]; C: Water 10.0 vol + THF 250 μL): Solid | Observations (t = 14 days @ ambient) ([1]; D: Water 10.0 vol + Methanol 250 μL): Solid | XRPD (dried pellet) ([2]; 2-Propanol): Form A | XRPD (moist pellet) ([2]; 2-Propanol): Paste | Solid on cooling? ([2]; 2-Propanol, 10 vol): ✓ | Solution at reflux ([2]; 2-Propanol, 10 vol): ✓ | Solution at reflux ([2]; 2-Propanol, 15 vol): ✓ | XRPD (dried pellet) ([2]; Acetone): Form A | XRPD (moist pellet) ([2]; Acetone): Form A | XRPD (moist pellet) ([2]; Acetone/Water (5% v/v, 0.5 aw)): Solution | Solid on cooling ([2]; Acetone/Water (5% v/v, 0.5 aw), 5 vol): ✓ | Solution at reflux ([2]; Acetone/Water (5% v/v, 0.5 aw), 10 vol): ✓ | XRPD (dried pellet) ([2]; Chlorobenzene): Form A | XRPD (moist pellet) ([2]; Chlorobenzene): Paste | XRPD (moist pellet) ([2]; DCM): Form A | XRPD (moist pellet) ([2]; EtOAc): Form A | XRPD (dried pellet) ([2]; EtOH): Form A | XRPD (moist pellet) ([2]; EtOH): Form A | Solid on cooling ([2]; EtOH, 15 vol): ✓ | Solid on cooling ([2]; EtOH, 20 vol): ✓ | XRPD (moist pellet) ([2]; Ethanol/Water (15% v/v, 0.5 aw)): Solution | Solid on cooling [2, 4]: ✓ | Solution at reflux [2, 4]: ✓ | Solution at 20° C. ([2]; Ethanol/Water (15% v/v, 0.5 aw), 10 vol): ✓ | XRPD (moist pellet) ([2]; Ethyl formate): Form A | XRPD (moist pellet) ([2]; Heptane): Form A | XRPD (moist pellet) ([2]; Isopropanol/Water (12%, v/v, 0.5 aw)): Solution | Solid on cooling ([2]; Isopropanol/Water (12%, v/v, 0.5 aw), 5 vol): ✓ | Solution at reflux ([2]; Isopropanol/Water (12%, v/v, 0.5 aw), 10 vol): ✓ | XRPD (dried pellet) ([2]; MEK): Form A | XRPD (moist pellet) ([2]; MEK): Paste | XRPD (moist pellet) ([2]; MeCN): Form A | Solid on cooling ([2]; MeCN, 15 vol): ✓ | Solid on cooling ([2]; MeCN, 20 vol): ✓ | XRPD (moist pellet) ([2]; MeOH): Solution | Solution at reflux ([2]; MeOH, 10 vol): ✓ | XRPD (dried pellet) ([2]; MeTHF): Form A | XRPD (moist pellet) ([2]; MeTHF): Paste | XRPD (dried pellet) ([2]; Methyl acetate): Form A | XRPD (moist pellet) ([2]; Methyl acetate): Paste | XRPD (dried pellet) ([2]; Nitromethane): Form A | XRPD (moist pellet) ([2]; Nitromethane): Paste | Solid on cooling? ([2]; Nitromethane, 10 vol): ✓ | Solution at 40° C. ([2]; Nitromethane, 15 vol): ✓ | Solution at reflux ([2]; Nitromethane, 15 vol): ✓ | XRPD (moist pellet) ([2]; TBME): Form A | XRPD (dried pellet) ([2]; Toluene): Form A | XRPD (moist pellet) ([2]; Toluene): Paste | XRPD (moist pellet) ([2]; Water): Solution | Solution at 20° C. ([2]; Water, 5 vol): ✓ | Qualitative solubility ([2]; polar and aqueous solvents at temperature, panel of 22 solvents): soluble | Qualitative solubility ([2]; polar solvents and solvents with high water activity): readily soluble

COc1ccc2c(ccn2C[C@@H](C)[NH+](C)C)c1.O=C(O)/C=C/C(=O)O [Compound 1 fumarate, (R)-1-(5-methoxy-1H-indol-1-yl)-N,N-dimethylpropan-2-amine fumarate]
Solid on cooling ([3]; 2-MeTHF, 5 vol): Yes | Solution at reflux ([3]; 2-MeTHF, 5 vol (200 mg/ml), fumarate): ✓ | Solution at reflux ([3]; 2-MeTHF, 5 vol (200 mg/ml), listed as fumarate salt, fumarate): soluble | Solution at 20° C. ([3]; Acetone, 5 vol (200 mg/ml), fumarate): ✓ | Solution at 20° C. ([3]; Acetone, 5 vol (200 mg/ml), listed as fumarate salt, fumarate): soluble | Solution at 20° C. ([3]; Butanol, 5 vol (200 mg/ml), fumarate): ✓ | Solution at 20° C. ([3]; Butanol, 5 vol (200 mg/ml), listed as fumarate salt, fumarate): soluble | Solution at 20° C. ([3]; DCM, 5 vol (200 mg/ml), fumarate): ✓ | Solution at 20° C. ([3]; DCM, 5 vol (200 mg/ml), listed as fumarate salt, fumarate): soluble | Solid on cooling ([3]; Dioxane, 5 vol): No | Solution at 40° C. ([3]; Dioxane, 5 vol (200 mg/ml), fumarate): ✓ | Solution at 40° C. ([3]; Dioxane, 5 vol (200 mg/ml), listed as fumarate salt, fumarate): soluble | Solution at 20° C. ([3]; Ethanol, 5 vol (200 mg/ml), fumarate): ✓ | Solution at 20° C. ([3]; Ethanol, 5 vol (200 mg/ml), listed as fumarate salt, fumarate): soluble | Solid on cooling ([3]; IPA, 5 vol): Yes | Solution at 40° C. ([3]; IPA, 5 vol (200 mg/ml), fumarate): ✓ | Solution at 40° C. ([3]; IPA, 5 vol (200 mg/ml), listed as fumarate salt, fumarate): soluble | Solution at 20° C. ([3]; MEK, 5 vol (200 mg/ml), fumarate): ✓ | Solution at 20° C. ([3]; MEK, 5 vol (200 mg/ml), listed as fumarate salt, fumarate): soluble | Solid on cooling ([3]; MIBK, 10, 15 & 20 vol): Yes | Solution at reflux ([3]; MIBK, 10, 15 & 20 vol): ✓ | Dissolution in refluxing methylisobutyketone (MIBK) ([3]; MIBK, reflux, 15 vol concentration): dissolved | Solution at 20° C. ([3]; MeCN, 5 vol (200 mg/ml), fumarate): ✓ | Solution at 20° C. ([3]; MeCN, 5 vol (200 mg/ml), listed as fumarate salt, fumarate): soluble | Solution at 20° C. ([3]; Methanol, 5 vol (200 mg/ml), fumarate): ✓ | Solution at 20° C. ([3]; Methanol, 5 vol (200 mg/ml), listed as fumarate salt, fumarate): soluble | Solution at 20° C. ([3]; THF, 5 vol (200 mg/ml), fumarate): ✓ | Solution at 20° C. ([3]; THF, 5 vol (200 mg/ml), listed as fumarate salt, fumarate): soluble | Solution at 20° C. ([3]; Water, 5 vol (200 mg/ml), fumarate): ✓ | Solution at 20° C. ([3]; Water, 5 vol (200 mg/ml), listed as fumarate salt, fumarate): soluble
